What was measured:
[1] = system: hiPSC-CMs (iCell2 Cardiomyocytes) 2D monolayers; assay: Contractility measurements using video imaging (ContractilityTool / MUSCLEMOTION); format: cell-based, human; settings: Homo sapiens, Cardiomyocyte, 0.5 h, 30 min, delta over DMSO 0.1%
Method: (§1) Cardiomyocytes (FUJIFILM Cellular Dynamics, Madison, WI, USA) were kept at −190 °C and prepared for culture as per the manufacturer’s instructions.
(§2) Standard fibronectin vs. Matrix Plus well coating: The cells were cultured using two different coatings in a humidified incubator at 37 °C with 5% CO2. First, 96-well glass-bottomed plates (MatTek, Ashland, MA) were coated with fibronectin ([…] in PBS supplemented with Ca^2+ and Mg^2+; Sigma, St. Louis, MO, USA) (defining FM). Second, CELLvo^TM Matrix Plus (StemBioSys, San Antonio, TX, USA), which were pre-coated on 96 well glass bottom plates and kept at 4 °C. On the day of plating, CELLvo^TM Matrix Plus plates were transferred to room temperature, rehydrated with phosphate buffer saline (PBS), incubated for 1 h at 37 °C, and washed 2× with PBS. Cells were introduced at a density of 50,000 cells/well to allow the formation of a confluent monolayer in each well (defined as MM). The maintenance protocols followed the manufacturer’s instructions and used the iCell^2 Cardiomyocytes Maintenance media for media changes every 2 days. Experiments were performed between days 5 and 6, as recommended by the manufacturers. Before beginning an experiment, cells were washed in serum-free media (SF media) (Fluorobrite DMEM, Gibco, Thermo Fisher Scientific, Horsham, UK).
(§3) The drug powders were dissolved in DMSO, and four stock concentrations at 1000× the final target concentration were prepared in DMSO. For the experiment, an intermediate concentration 2× the target solution was prepared in SF media. The addition of drugs to the cells was accomplished by replacing 50% of the well volume with the intermediate 2× solution. The same procedure was done for vehicle control using DMSO. The experimental number n = 8/concentration/testing compound in the FM or MM condition, and n = 36 for each positive or negative control in the FM or MM condition.
(§4) The dye FluoVolt is loaded into the surface membrane (outer leaflet), and the dye remains within the membrane for many dots, allowing intermittent voltage measurements over the experimental period. In this study, measurements were restricted to within 30 mins of application of the drug. The measurements were made on the same area before/after drug/DMSO addition. […] Baseline spontaneous electrical activity and the associated contractility signal were recorded by capturing 10 s segments of fluorescent signal and video for 2D plates and 15 s for organoids from each well prior to compound addition. Drugs were tested at four concentrations in n = 8 independent replicates (i.e., 8 wells from a single plating) at each concentration. A vehicle control was included for each drug. A 10 s or 15 s recording was then taken 30 min after exposure to the drug or vehicle with only one concentration applied/well. Offline analysis was performed using proprietary software (CellOPTIQ®).
Short periods (10 s or 15 s) of video were analyzed using the ContractilityTool application (developed by F.L. Burton), which is an implementation of the MUSCLEMOTION algorithm.

[2] = system: hiPSC-CMs (iCell2 Cardiomyocytes) 2D monolayers; assay: Membrane potential (action potential) recordings with FluoVolt voltage-sensitive dye on the CellOPTIQ platform; format: cell-based, human; settings: for activity at 3 µM / activity at 0.1 µM / activity at 0.3 µM / activity at 1 µM: Homo sapiens, Cardiomyocyte, 0.5 h, 30 min, delta over DMSO 0.1%
Method: as §1, §2, §3
Cultures of hiPSC-CMs (5–6 days post-plating) were treated with FluoVolt dye (1:1000, Invitrogen, Cat# F10488) in SF media and incubated for 20 min at 37 °C with 5% CO2 and 80% humidity. Multi-well plates were placed in the environmentally controlled stage incubator (37 °C, 5% CO2, water-saturated air atmosphere) (Okolab Inc. Burlingame, CA) of the CellOPTIQ® platform (Clyde Biosciences Ltd., Glasgow, Scotland). The FluoVolt signal was recorded from a 0.2 mm × 0.2 mm area using a 40× (numerical aperture: NA 0.6) Excitation wavelength was 470 ± 10 nm using a light-emitting diode (LED), and emitted light was collected by two photomultipliers (PMTs) at 510–560 nm (channel 1) and 590–650 nm (channel 2), respectively. LED, PMT, and associated power supplies and amplifiers were supplied by Cairn Research Ltd. (Kent, UK) and digitized at 10 kHz and stored on a computer hard drive. In the case of FluoVolt-based action potential recordings, the short wavelength (channel 1, […]) was analyzed for action potential features.
as §4, with “applied/well.” for “applied/well. Offline analysis was performed using proprietary software (CellOPTIQ®).”

[3] = FM monolayer, read-out: CtAmp (%DD)
[4] = FM monolayer, read-out: CtD50 (%DD)
[5] = MM monolayer, read-out: CtAmp (%DD)
[6] = MM monolayer, read-out: CtD50 (%DD)
[7] = MM monolayer, read-out: APD30 (%DD)
[8] = MM monolayer, read-out: APD90 (%DD)
[9] = MM monolayer, read-out: CL (%DD)
[10] = MM monolayer, read-out: Trise (%DD)
[11] = read-out: APD30 (%DD), FM monolayer
[12] = read-out: APD90 (%DD), FM monolayer
[13] = read-out: CL (%DD), FM monolayer
[14] = read-out: Trise (%DD), FM monolayer

Structure (SMILES): O=C1CCCN1CC#CCN1CCCC1 [Oxotremorine]
- activity at 0.1 µM [1, 3]: 140 ± 19.7%
- activity at 0.1 µM [1, 4]: 108 ± 1.9%
- activity at 0.3 µM [1, 3]: 105 ± 16.5%
- activity at 0.3 µM [1, 4]: 112 ± 2.5%
- activity at 1 µM [1, 3]: 117 ± 14.5%
- activity at 1 µM [1, 4]: 116 ± 2.8%
- activity at 3 µM [1, 3]: 166 ± 17.6%
- activity at 3 µM [1, 4]: 110 ± 1.6%
- activity at 0.1 µM [1, 5]: 106 ± 11.7%
- activity at 0.1 µM [1, 6]: 116 ± 2.1%
- activity at 0.3 µM [1, 5]: 97 ± 12.9%
- activity at 0.3 µM [1, 6]: 117 ± 1.1%
- activity at 1 µM [1, 5]: 105 ± 10.2%
- activity at 1 µM [1, 6]: 118 ± 1.6%
- activity at 3 µM [1, 5]: 103 ± 7.4%
- activity at 3 µM [1, 6]: 120 ± 2.3%
- activity at 3 µM ([2]; FM monolayer, read-out: Trise (%DD)): 132 ± 11.2%
- activity at 0.1 µM [2, 7]: 104 ± 1.7%
- activity at 0.1 µM [2, 8]: 104 ± 1%
- activity at 0.1 µM [2, 9]: 111 ± 2.8%
- activity at 0.1 µM [2, 10]: 124 ± 18.7%
- activity at 0.3 µM [2, 7]: 110 ± 3.4%
- activity at 0.3 µM [2, 8]: 108 ± 1.1%
- activity at 0.3 µM [2, 9]: 115 ± 3.3%
- activity at 0.3 µM [2, 10]: 144 ± 26.3%
- activity at 1 µM [2, 7]: 110 ± 2.8%
- activity at 1 µM [2, 8]: 114 ± 1.1%
- activity at 1 µM [2, 9]: 120 ± 1.4%
- activity at 1 µM [2, 10]: 117 ± 17%
- activity at 3 µM [2, 7]: 115 ± 3.8%
- activity at 3 µM [2, 8]: 113 ± 1.2%
- activity at 3 µM [2, 9]: 123 ± 1.1%
- activity at 3 µM [2, 10]: 158 ± 32%
- activity at 0.1 µM [2, 11]: 106 ± 2.3%
- activity at 0.3 µM [2, 11]: 111 ± 3.3%
- activity at 1 µM [2, 11]: 110 ± 4.4%
- activity at 3 µM [2, 11]: 107 ± 3.4%
- activity at 0.1 µM [2, 12]: 103 ± 1.3%
- activity at 0.3 µM [2, 12]: 105 ± 2.8%
- activity at 1 µM [2, 12]: 111 ± 1.7%
- activity at 3 µM [2, 12]: 101 ± 2.8%
- activity at 0.1 µM [2, 13]: 117 ± 1.3%
- activity at 0.3 µM [2, 13]: 122 ± 1.8%
- activity at 1 µM [2, 13]: 121 ± 2.9%
- activity at 3 µM [2, 13]: 111 ± 3.6%
- activity at 0.1 µM [2, 14]: 155 ± 41.3%
- activity at 0.3 µM [2, 14]: 145 ± 24.3%
- activity at 1 µM [2, 14]: 117 ± 13.3%
- effect on beating rate / spontaneous rate (in words) ([2]; both FM and MM, concentration not given): decrease
- changes in the APD ([2]; both groups (FM and MM)): < 10%
